Values quoted from earlier work, collected in patent US6440956B1, “Bicyclic polyaminoacid metal complexes, their process of preparation and their application in medical imaging” (Guerbet, priority 1999, dated 2002).

Conditions: ratio to commercial gadolinium chelates; from Inorganic Chemistry 36(14) 2992-3000 (1997) and Magn. Reson. Chem. 36, S200-208 (1998)

For `O=C([O-])CN1CCN(CC(=O)[O-])Cc2cccc(n2)CN(CC(=O)[O-])CC1.[Gd+3]` [PCTA], the “longitudinal relaxation r1 relative to that of the gadolinium chelates used as contrast agents in magnetic resonance imaging in man” value is given as roughly 2 times.
